The values that follow are results of earlier work, collected in PMC9182199, “Borylated 2,3,4,5-Tetrachlorophthalimide and Their 2,3,4,5-Tetrachlorobenzamide Analogues: Synthesis, Their Glycosidase Inhibition and Anticancer Properties in View to Boron Neutron Capture Therapy” (Molecules, 2022).

The subject of one series is rat. Also noted: method as in earlier work. The note with it: oral; cited from earlier work.
The target in a further series is T1, yeast α-glucosidase (Saccharomyces cerevisiae, UniProt P53341).
T1 construct: purchased Sigma
Also noted: method as in PMID 18254235. The settings on record: cited from earlier work.

For the next series, the target named is maltase. Also noted: method as in PMID 18254235. The settings on record: cited from earlier work.
A further series deals with sucrase. Further details: method as in PMID 18254235. The settings on record: cited from earlier work.
In series [1] the test system is human. The note with it: oral; cited from earlier work.
Series [2] deals with human. The settings on record: 5 min; cited from earlier work.
For series [3] the following is noted: cited from earlier work.

Each structure is given as a SMILES string.

T1 sequence (P53341 whole entry): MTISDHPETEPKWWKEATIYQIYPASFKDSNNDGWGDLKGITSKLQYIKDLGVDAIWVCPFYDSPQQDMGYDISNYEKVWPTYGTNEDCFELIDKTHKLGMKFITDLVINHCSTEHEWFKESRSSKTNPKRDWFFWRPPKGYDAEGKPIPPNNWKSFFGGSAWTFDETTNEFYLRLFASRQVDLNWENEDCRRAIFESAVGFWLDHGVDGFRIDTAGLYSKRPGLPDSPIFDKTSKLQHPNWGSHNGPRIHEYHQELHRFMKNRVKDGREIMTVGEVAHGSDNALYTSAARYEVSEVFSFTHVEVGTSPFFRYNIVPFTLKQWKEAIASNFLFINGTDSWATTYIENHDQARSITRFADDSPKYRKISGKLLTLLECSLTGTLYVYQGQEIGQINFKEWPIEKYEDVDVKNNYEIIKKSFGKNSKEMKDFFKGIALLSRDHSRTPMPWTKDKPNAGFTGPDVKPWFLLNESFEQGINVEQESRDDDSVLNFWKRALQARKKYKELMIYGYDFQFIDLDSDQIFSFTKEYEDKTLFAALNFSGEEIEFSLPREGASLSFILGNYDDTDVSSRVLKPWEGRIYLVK

The term LD50 denotes the dose expected to kill half of the subjects tested. For `OB(O)c1ccccc1` [phenylboronic acid], the LD50 in the series on rat is given as 740 mg/kg.
The term IC50 denotes the concentration that gives 50% inhibition. Consider `O=C1c2ccccc2C(=O)N1c1ccc([N+](=O)[O-])cc1[N+](=O)[O-]` [N-(2,4-dinitrophenyl)phthalimide], for which the IC50 is 158 µM at yeast α-glucosidase and 51 µM at maltase. Moreover, the inhibition of sucrase entry with sucrase is “no inhibition”.
As to `c1ccccc1` [benzene], in the series with human [1], the “LD50 (lethal dose)” value is given as 125 mg/kg. Moreover, the “LCLO (lethal concentration)” value in the series with human [2] is on record as 20,000 ppm. Also, in series [3], the “Immediately Dangerous to Life and Health concentration” value is listed as 500 ppm; the “Recommended Exposure Limit” value is 0.1 ppm.
